“And” between values parts separate entries of the source, which are not always exact repeats. Equal entries are not always repeated.
Assay: xn = mol fraction of the nth substance listed

C=Cn1cc[n+](CCCC)c1.NCC(=O)[O-] + O
101.3 kPa
Details | electrical conductivity [S/m] | viscosity [mPa·s]
293.15 K, x1 = 0.5 | – | 59.3
293.15 K, x1 = 0.9 | – | 1599
303.15 K, x1 = 0.5 | 2.58 | 43.4
303.15 K, x1 = 1 | 0.009 | 9300
308.15 K, x1 = 0.1 | 1.11 | –
308.15 K, x1 = 0.7 | 1.99 | –
308.15 K, x1 = 0.9 | 0.48 | –
308.15 K, x1 = 1 | 0.012 | –
318.15 K, x1 = 0.5 | 3.58 | –
333.15 K, x1 = 0.3 | – | 10.48
333.15 K, x1 = 1 | – | 1753
343.15 K, x1 = 0.3 | – | 10.08
343.15 K, x1 = 1 | – | 1089
353.15 K, x1 = 0.5 | – | 21.66
353.15 K, x1 = 0.9 | – | 520
353.15 K, x1 = 1 | – | 730

CCCCCCCCn1cc[n+](C)c1.N#C[S-] + [Br-].[Li+] + CN1CCCC1=O
298.15 K, 101 kPa
Details | viscosity [mPa·s]
x1 = 0.001194, x2 = 0.02592 | 2.51
x1 = 0.001279, x2 = 0.05082 | 3.301
x1 = 0.001363, x2 = 0.07495 | 4.627
x1 = 0.002361, x2 = 0.07487 | 4.663
x1 = 0.002564, x2 = 0.05075 | 3.33
x1 = 0.002749, x2 = 0.02588 | 2.538
x1 = 0.003543, x2 = 0.07478 | 4.688
x1 = 0.003719, x2 = 0.05069 | 3.358
x1 = 0.003898, x2 = 0.02585 | 2.568
x1 = 0.004852, x2 = 0.05063 | 3.389
x1 = 0.005129, x2 = 0.07466 | 4.714
x1 = 0.00561, x2 = 0.02581 | 2.544
x1 = 0.005681, x2 = 0.05059 | 3.416
x1 = 0.006324, x2 = 0.07457 | 4.741
x1 = 0.006743, x2 = 0.02578 | 2.6
x1 = 0.007583, x2 = 0.07448 | 4.77
x1 = 0.007954, x2 = 0.05048 | 3.441
x1 = 0.008125, x2 = 0.02574 | 2.622
x1 = 0.008906, x2 = 0.07438 | 4.799
x1 = 0.009097, x2 = 0.05042 | 3.471
x1 = 0.009222, x2 = 0.02572 | 2.651
x1 = 0.009986, x2 = 0.05037 | 3.503
x1 = 0.01013, x2 = 0.02569 | 2.674
x1 = 0.01054, x2 = 0.07426 | 4.824

C[N+](C)(C)CCO.O=S(=O)([N-]S(=O)(=O)C(F)(F)F)C(F)(F)F + OCCO
100 kPa, x1 = 0.14
Details | electrical conductivity [S/m] | viscosity [mPa·s]
303 K | 0.381 | 17.9
323 K | 0.73 | 8.85

CCCCCCCCn1cc[n+](C)c1.[Cl-] + OC[C@H]1O[C@@](CO)(O[C@H]2O[C@H](CO)[C@@H](O)[C@H](O)[C@H]2O)[C@@H](O)[C@@H]1O + O
298.15 K, 101.3 kPa
Details | electrical conductivity
x2 = 0, x1 = 4.96e-06 | 0.00314 S/m
x2 = 0, x1 = 7.53e-06 | 0.00467 S/m
x2 = 0, x1 = 1.002e-05 | 0.00613 S/m
x2 = 0, x1 = 1.247e-05 | 0.00756 S/m
x2 = 0, x1 = 1.481e-05 | 0.00893 S/m
x2 = 0, x1 = 1.716e-05 | 0.01029 S/m
x2 = 0, x1 = 1.95e-05 | 0.0116 S/m
x2 = 0, x1 = 2.177e-05 | 0.0129 S/m
x2 = 0, x1 = 2.424e-05 | 0.01436 S/m
x2 = 0, x1 = 2.667e-05 | 0.0158 S/m
x2 = 0, x1 = 2.939e-05 | 0.0173 S/m
x2 = 0.003591, x1 = 1.259e-05 | 0.00669 S/m
x2 = 0.003591, x1 = 1.587e-05 | 0.00832 S/m
x2 = 0.003591, x1 = 1.902e-05 | 0.00988 S/m
x2 = 0.003591, x1 = 2.222e-05 | 0.0114 S/m
x2 = 0.003591, x1 = 2.521e-05 | 0.0129 S/m
x2 = 0.003591, x1 = 2.835e-05 | 0.0144 S/m
x2 = 0.003591, x1 = 3.142e-05 | 0.0159 S/m
x2 = 0.003591, x1 = 3.424e-05 | 0.01727 S/m
x2 = 0.003591, x1 = 3.712e-05 | 0.0186 S/m
x2 = 0.007156, x1 = 1.254e-05 | 0.00531 S/m
x2 = 0.007156, x1 = 1.623e-05 | 0.00676 S/m
x2 = 0.007156, x1 = 1.993e-05 | 0.00821 S/m
x2 = 0.007156, x1 = 2.37e-05 | 0.00967 S/m
x2 = 0.007156, x1 = 2.738e-05 | 0.0111 S/m
x2 = 0.007156, x1 = 3.084e-05 | 0.01242 S/m
x2 = 0.007156, x1 = 3.403e-05 | 0.0137 S/m
x2 = 0.007156, x1 = 3.72e-05 | 0.0149 S/m
x2 = 0.007156, x1 = 4.042e-05 | 0.01608 S/m
x2 = 0.007156, x1 = 4.288e-05 | 0.01701 S/m
x2 = 0.0107, x1 = 8.12e-06 | 0.00311 S/m
x2 = 0.0107, x1 = 1.295e-05 | 0.00472 S/m
x2 = 0.0107, x1 = 1.756e-05 | 0.00623 S/m
x2 = 0.0107, x1 = 2.181e-05 | 0.00762 S/m
x2 = 0.0107, x1 = 2.602e-05 | 0.00898 S/m
x2 = 0.0107, x1 = 3.017e-05 | 0.0103 S/m
x2 = 0.0107, x1 = 3.408e-05 | 0.0115 S/m
x2 = 0.0107, x1 = 3.778e-05 | 0.0127 S/m
x2 = 0.0107, x1 = 4.136e-05 | 0.0138 S/m
x2 = 0.0107, x1 = 4.484e-05 | 0.0149 S/m
x2 = 0.0107, x1 = 4.818e-05 | 0.016 S/m
x2 = 0.01421, x1 = 9.43e-06 | 0.00302 S/m
x2 = 0.01421, x1 = 1.407e-05 | 0.00432 S/m
x2 = 0.01421, x1 = 1.861e-05 | 0.00559 S/m
x2 = 0.01421, x1 = 2.29e-05 | 0.00678 S/m
x2 = 0.01421, x1 = 2.718e-05 | 0.00795 S/m
x2 = 0.01421, x1 = 3.134e-05 | 0.00908 S/m
x2 = 0.01421, x1 = 3.512e-05 | 0.0101 S/m
x2 = 0.01421, x1 = 3.883e-05 | 0.0111 S/m
x2 = 0.01421, x1 = 4.258e-05 | 0.0121 S/m
x2 = 0.01421, x1 = 4.643e-05 | 0.01312 S/m
x2 = 0.0177, x1 = 7.66e-06 | 0.00219 S/m
x2 = 0.0177, x1 = 1.502e-05 | 0.00393 S/m
x2 = 0.0177, x1 = 2.194e-05 | 0.00554 S/m
x2 = 0.0177, x1 = 2.846e-05 | 0.00705 S/m
x2 = 0.0177, x1 = 3.471e-05 | 0.00848 S/m
x2 = 0.0177, x1 = 4.134e-05 | 0.00996 S/m
x2 = 0.0177, x1 = 4.728e-05 | 0.01128 S/m
x2 = 0.0177, x1 = 5.36e-05 | 0.0127 S/m
x2 = 0.0177, x1 = 5.928e-05 | 0.0139 S/m
x2 = 0.0177, x1 = 6.496e-05 | 0.01517 S/m
x2 = 0.02116, x3 = 0.9788 | 0.0133 S/m and 0.0143 S/m

CCCC[P+](CCCC)(CCCC)CCCC.F[B-](F)(F)F + CC#N + C1CCOC1
298.15 K, 100 kPa
Details | viscosity [mPa·s]
x1 = 0.0005747, x2 = 0.84 | 0.377
x1 = 0.0006326, x2 = 0.6368 | 0.408
x1 = 0.000709, x2 = 0.369 | 0.437
x1 = 0.0008641, x2 = 0.8398 | 0.381
x1 = 0.0009513, x2 = 0.6366 | 0.412
x1 = 0.001066, x2 = 0.3689 | 0.442
x1 = 0.001153, x2 = 0.8395 | 0.384
x1 = 0.00127, x2 = 0.6364 | 0.416
x1 = 0.001429, x2 = 0.3688 | 0.447
x1 = 0.001442, x2 = 0.8393 | 0.388
x1 = 0.001588, x2 = 0.6362 | 0.42
x1 = 0.001736, x2 = 0.839 | 0.392
x1 = 0.001786, x2 = 0.3686 | 0.451
x1 = 0.001911, x2 = 0.636 | 0.424
x1 = 0.002029, x2 = 0.8388 | 0.396
x1 = 0.002142, x2 = 0.3685 | 0.456
x1 = 0.002229, x2 = 0.6358 | 0.429
x1 = 0.002504, x2 = 0.3684 | 0.461

From the CheMixHub ionic liquid set
